Literature values, collected in patent US20070197530A1, “Amido compounds and their use as pharmaceuticals” (priority 2006, published 2007).

Assays:
[1] = test system: pancreatic islet cells of ob/ob mice
[2] = test system: primary hippocampal cells
healthy volunteers = conditions: after seven days of carbenoxolone treatment

## CC1(C)[C@@H](OC(=O)CCC(=O)O)CC[C@]2(C)[C@H]3C(=O)C=C4[C@@H]5C[C@@](C)(C(=O)O)CC[C@]5(C)CC[C@@]4(C)[C@]3(C)CC[C@@H]12 [carbenoxolone]
[1]
  glucose-stimulated insulin release: improves glucose-stimulated insulin release
Bone nodule formation
  negative effects of glucocorticoids on bone nodule formation: attenuate the negative effects of glucocorticoids on bone nodule formation
[2]
  protection from glucocorticoid-mediated exacerbation of excitatory amino acid neurotoxicity: protects the cells from glucocorticoid-mediated exacerbation of excitatory amino acid neurotoxicity
Healthy volunteers
  IOP reduced by: 18%
